Assay results reported in publication PMC11923385, “Rational Design, Synthesis, and Biological Assessment of Potential Indole‐Capped HDAC6 Inhibitors for Gastric Cancer Suppression” (MedComm, 2025).
Where two headings read alike, the source gives them in different places.

Experiments:
[1] = target: HDAC2 (Homo sapiens, UniProt Q92769); assay: HDAC2 enzyme activity assay; format: biochemical; settings: HDAC2 compared to HDAC6
[2] = target: T1, HDAC6 (Homo sapiens, UniProt Q9UBN7); assay: HDAC6 enzymatic assay (Ac-Lys-AMC substrate, fluorescence); format: biochemical; set-up: purchased BPS bioscience, USA; settings: enzyme activity assay
T1 sequence (Q9UBN7 1-1215): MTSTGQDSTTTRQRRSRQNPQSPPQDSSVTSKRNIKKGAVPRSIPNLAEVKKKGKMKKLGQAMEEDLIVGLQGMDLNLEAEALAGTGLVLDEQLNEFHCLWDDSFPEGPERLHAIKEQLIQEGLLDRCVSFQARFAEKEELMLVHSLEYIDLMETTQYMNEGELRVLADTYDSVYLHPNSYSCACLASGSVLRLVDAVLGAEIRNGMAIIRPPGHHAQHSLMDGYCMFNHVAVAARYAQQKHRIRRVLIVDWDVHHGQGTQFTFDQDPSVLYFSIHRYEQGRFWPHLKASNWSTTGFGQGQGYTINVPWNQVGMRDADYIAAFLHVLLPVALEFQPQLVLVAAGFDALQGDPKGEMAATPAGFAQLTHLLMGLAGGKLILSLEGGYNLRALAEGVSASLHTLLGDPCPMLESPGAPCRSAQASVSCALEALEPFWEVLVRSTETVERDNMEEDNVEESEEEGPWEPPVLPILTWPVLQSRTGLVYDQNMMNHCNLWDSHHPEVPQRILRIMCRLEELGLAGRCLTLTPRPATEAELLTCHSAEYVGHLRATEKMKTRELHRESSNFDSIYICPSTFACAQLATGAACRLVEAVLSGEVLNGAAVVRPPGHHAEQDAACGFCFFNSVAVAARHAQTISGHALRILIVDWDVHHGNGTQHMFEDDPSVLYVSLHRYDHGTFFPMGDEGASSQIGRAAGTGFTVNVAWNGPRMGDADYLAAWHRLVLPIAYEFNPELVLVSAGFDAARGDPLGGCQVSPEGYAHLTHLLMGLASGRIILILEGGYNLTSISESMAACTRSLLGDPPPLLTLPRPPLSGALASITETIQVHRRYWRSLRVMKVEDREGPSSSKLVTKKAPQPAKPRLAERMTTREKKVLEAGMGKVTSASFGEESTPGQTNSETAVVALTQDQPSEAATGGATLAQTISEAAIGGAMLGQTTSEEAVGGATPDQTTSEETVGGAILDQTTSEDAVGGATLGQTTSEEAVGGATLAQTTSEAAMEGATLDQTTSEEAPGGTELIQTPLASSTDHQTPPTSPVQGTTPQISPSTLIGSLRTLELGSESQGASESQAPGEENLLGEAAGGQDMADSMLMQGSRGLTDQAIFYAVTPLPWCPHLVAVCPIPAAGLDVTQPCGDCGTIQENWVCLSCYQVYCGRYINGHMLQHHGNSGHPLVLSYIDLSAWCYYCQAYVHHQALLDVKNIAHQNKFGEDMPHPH
Experimental: (§1) The HDAC6 substrate Ac-Lys-AMC (Chinapeptides, China), human recombinant protein HDAC6 (100 ng/mL) (BPS bioscience, USA), and the test compounds were incubated together at 37°C in an assay buffer. The assay buffer consisted of 25 mM HEPES (pH 7.5), 100 mM NaCl, 2.5 mM KCl, 0.005% Tween-20, 1 mM MgCl2, and 0.1 mg/mL bovine serum albumin. After incubation for 1 hour, trypsin was added to release the fluorescent fragment.

[3] = tested on: HDAC6 (Ac‐α‐tubulin, Ac‐H3 readout); assay: Western blot of HDAC6, Ac-H3 and Ac-α-tubulin in cells; format: cell-based
Experimental: (§2) Following the indicated treatment, cells were collected and lysed using the recommended amount of radio immunoprecipitation assay (RIPA) buffer from KMT Bio, China, according to the provided instructions. The protein concentration in the lysate was determined using a bicinchoninic acid (BCA)-based protein quantification kit from KMT Bio, China. Subsequently, the samples were denatured in the presence of a 6× loading buffer from KMT Bio, China. Equal amounts of denatured protein samples were subjected to sodium dodecyl sulfate-polyacrylamide gel electrophoresis (SDS-PAGE), and the target protein was then transferred to a nitrocellulose membrane using the wet transfer method with Pall, USA membranes. The membrane was incubated with 5% non-fat milk at 37°C for 1 hour to block non-specific binding, followed by an overnight incubation at 4°C with the recommended concentration of the primary antibody. Afterward, the membranes were washed three times with PBST (PBS buffer with 0.1% Tween-20) for 10 minutes each. The secondary antibody was then appropriately diluted and incubated with the membrane at room temperature for 1 hour. Finally, the membranes were washed three more times with PBST for 10 minutes each, and the protein bands were visualized using an ECL chemiluminescence detection kit from ThermoFisher, USA.

[4] = Pharmacokinetic study in mice; format: in vivo; settings: male, ICR, mouse, plasma
Experimental: Six male ICR mice were divided into two groups, receiving compound 10n via intravenous and oral administration, respectively. The intravenous injection group had blood samples collected at 5 min, 15 min, 30 min, 1 h, 2 h, 4 h, 6 h, 8 h, and 24 h post-administration; the oral group had blood samples collected at the same time points. Approximately 0.05 mL of blood was collected for each sample. The concentration of compound 10n in mouse plasma samples was determined using LC-MS/MS method and pharmacokinetic parameters were calculated using WinNolin software.

[5] = tested on: MFC cells; format: in vivo, mice; settings: for tumor growth inhibition rate (TGI): MFC tumor, 615 mice, 14 days
Experimental: Six-week-old 615 mice (male) were procured from SJA laboratory animals in Hunan, China, and acclimated to a pathogen-free environment for one week before the commencement of the experiment. Subsequently, 5 × 10^5 of gastric cancer cell MFC were subcutaneously administered into the right flank of the mice. Tumor volume was determined using the formula length × width^2/2. […] Following 14 days, the mice were euthanized, and their tumors and vital organs were dissected for analysis. Paraffin sections measuring 4 µm in thickness were subjected to deparaffinization and subsequently treated with 3% hydrogen peroxide to inhibit endogenous peroxidase activity. Following this, slides were prepared to prevent nonspecific antibody binding and were then exposed to primary antibodies targeting HDAC6, Ac-tubulin, Ki-67, and Tunnel. The mice involved in the study were maintained in specific pathogen-free environments, and the experimental procedures were approved by the Ethics Committee of the Zhengzhou University Health Science Centre. The animal experimentation ethics number is ZZU-URIB-2024-O-109. All experimental animals adhered to the ARRIVE guidelines and were strictly in accordance with the National Research Council Guidelines for the Care and Use of Laboratory Animals.

[6] = tested on: MGC‐803 cells; assay: Cytotoxicity against MGC-803 cells; format: cell-based; settings: Homo sapiens, 72 h
[7] = target: HDAC3 (Homo sapiens, UniProt O15379); assay: HDAC3 enzyme activity assay; format: biochemical; settings: HDAC3 compared to HDAC6
Chain of HDAC3 (O15379 whole entry, species assumed): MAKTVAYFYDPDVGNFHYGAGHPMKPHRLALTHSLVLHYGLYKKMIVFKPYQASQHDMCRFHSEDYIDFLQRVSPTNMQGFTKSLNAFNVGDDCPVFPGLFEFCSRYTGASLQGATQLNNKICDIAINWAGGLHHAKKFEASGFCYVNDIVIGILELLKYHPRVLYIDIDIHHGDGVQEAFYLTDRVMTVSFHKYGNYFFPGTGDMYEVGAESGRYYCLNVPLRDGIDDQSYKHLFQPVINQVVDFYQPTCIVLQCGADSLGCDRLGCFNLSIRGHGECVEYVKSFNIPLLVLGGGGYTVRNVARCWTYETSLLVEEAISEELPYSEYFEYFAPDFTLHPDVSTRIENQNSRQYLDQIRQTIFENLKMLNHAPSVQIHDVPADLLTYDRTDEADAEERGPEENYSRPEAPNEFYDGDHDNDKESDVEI
Chain of HDAC3 (Q9Y618 395-489 partner limits assumed, species assumed): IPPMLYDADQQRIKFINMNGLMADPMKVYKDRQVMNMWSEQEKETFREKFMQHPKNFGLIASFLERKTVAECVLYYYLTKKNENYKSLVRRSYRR

[8] = target: T2, HDAC8 (Homo sapiens, UniProt Q9BY41); assay: HDAC8 enzyme activity assay; format: biochemical; settings: HDAC8 compared to HDAC6
T2 sequence (Q9BY41 1-377): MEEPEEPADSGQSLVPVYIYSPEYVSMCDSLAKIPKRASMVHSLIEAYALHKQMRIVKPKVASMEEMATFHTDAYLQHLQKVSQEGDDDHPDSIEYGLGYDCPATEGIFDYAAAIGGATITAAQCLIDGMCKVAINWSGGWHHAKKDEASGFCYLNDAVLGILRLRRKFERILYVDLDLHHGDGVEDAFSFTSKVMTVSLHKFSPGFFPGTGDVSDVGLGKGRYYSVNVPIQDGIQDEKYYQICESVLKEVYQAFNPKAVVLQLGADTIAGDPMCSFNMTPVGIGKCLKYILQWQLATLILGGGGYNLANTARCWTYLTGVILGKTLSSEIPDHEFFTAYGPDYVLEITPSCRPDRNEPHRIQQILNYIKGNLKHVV
Experimental: as §1

[9] = tested on: MKN‐45 cells; assay: Cytotoxicity against MKN-45 cells; format: cell-based; settings: Homo sapiens, 72 h
[10] = tested on: MGC‐803 cells; assay: PD-L1 expression in MGC-803 cells; format: cell-based; settings: compared to vehicle control
[11] = tested on: gastric cancer cells; assay: Apoptosis, mitochondrial membrane potential and apoptosis protein expression in gastric cancer cells; format: cell-based
Experimental: as §2

[12] = target: HDAC1 (Homo sapiens, UniProt Q13547); assay: HDAC1 enzyme activity assay; format: biochemical; settings: HDAC1 compared to HDAC6
Chain of HDAC1 (Q13547 whole entry, species assumed): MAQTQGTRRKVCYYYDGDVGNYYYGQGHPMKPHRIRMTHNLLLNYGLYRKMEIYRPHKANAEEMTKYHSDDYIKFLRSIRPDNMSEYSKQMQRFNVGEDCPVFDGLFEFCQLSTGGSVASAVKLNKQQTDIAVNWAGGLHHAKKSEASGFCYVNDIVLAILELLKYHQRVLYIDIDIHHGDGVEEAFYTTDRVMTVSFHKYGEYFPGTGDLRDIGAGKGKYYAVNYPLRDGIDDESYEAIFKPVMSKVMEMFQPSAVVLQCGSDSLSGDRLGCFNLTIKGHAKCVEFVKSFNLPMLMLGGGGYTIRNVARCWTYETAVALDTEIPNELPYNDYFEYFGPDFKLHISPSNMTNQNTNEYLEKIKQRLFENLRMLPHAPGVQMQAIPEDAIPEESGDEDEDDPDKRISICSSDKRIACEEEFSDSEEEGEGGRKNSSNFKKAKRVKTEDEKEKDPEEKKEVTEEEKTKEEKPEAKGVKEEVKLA

[13] = target: T1, HDAC6; assay: CETSA of HDAC6 at the cellular level; format: cell-based
[14] = target: T1, HDAC6; assay: BLI binding assay; settings: biotinylated HDAC6 on streptavidin biosensors
Experimental: BLI experiments were conducted using an Octet Red 96 instrument (ForteBio). Streptavidin-coated biosensors (SA, ForteBio) were utilized, and biotinylated HDAC6 protein (50 μg/mL) was immobilized on the biosensor surface. The immobilization levels typically exceeded 0.3 nm. Ligand-loaded SA biosensors were then exposed to various concentrations of compound 10n. The dissociation constants for the interactions between HDAC6 and compound 10n were determined by plotting the increase in BLI response as a function of […].

Chain of HDAC2 (Q92769 whole entry, species assumed): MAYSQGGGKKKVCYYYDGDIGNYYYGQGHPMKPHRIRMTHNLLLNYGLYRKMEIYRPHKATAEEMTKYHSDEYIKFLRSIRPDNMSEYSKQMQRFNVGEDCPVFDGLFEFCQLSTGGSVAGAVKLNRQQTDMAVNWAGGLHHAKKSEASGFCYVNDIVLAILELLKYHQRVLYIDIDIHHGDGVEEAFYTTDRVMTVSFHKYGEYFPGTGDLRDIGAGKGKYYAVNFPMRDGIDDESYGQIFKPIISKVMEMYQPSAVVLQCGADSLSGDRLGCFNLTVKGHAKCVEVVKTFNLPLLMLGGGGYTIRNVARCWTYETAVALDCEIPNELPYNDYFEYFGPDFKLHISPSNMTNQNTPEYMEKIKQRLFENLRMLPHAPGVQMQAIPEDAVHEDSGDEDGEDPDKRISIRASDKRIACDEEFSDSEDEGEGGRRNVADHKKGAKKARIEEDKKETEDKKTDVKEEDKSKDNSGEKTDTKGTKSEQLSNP

## O=C(NO)c1ccc(CNC(=O)c2cn(CC3CC3)c3ccccc23)cc1 [Compound 10n]
[1]
  selectivity ratio HDAC2/6: 27.8 fold
[2]
  IC50: 3.11 nM
[3]
  acetylated H3 levels and HDAC6: no impact
  acetylated α-tubulin levels: dose‐dependent increase
[4]; iv
  AUC: 350 ± 51.9 ng·h/mL
  half-life: 1.61 ± 0.34 h
[4]; po
  AUC: 730 ± 140 ng·h/mL
  bioavailability: 41.8 ± 0.08%
  half-life: 2 ± 0.44 h
[5]; oral 10 mg/kg once daily
  tumor growth inhibition rate (TGI): 55.3%
[5]; oral 20 mg/kg once daily
  tumor growth inhibition rate (TGI): 80.6%
[5]; MFC tumor-bearing mice, 10 or 20 mg/kg oral
  toxicity in treated mice (body weight, organs): no apparent toxicity
[5]; tumor tissue
  HDAC6 protein expression in treated animals: no changes
  Ki-67 expression in mice: decreased
[5]; tumor tissue, immunohistochemistry
  levels of Ac-α-tubulin in treated animals: markedly elevated
[5]; two treatment groups versus control
  percentages of CD3+CD8+ cells in tumors: higher than the control
[6]
  IC50: 1070 ± 312 nM
[7]
  selectivity ratio HDAC3/6: 82.8 fold
[8]
  selectivity ratio HDAC8/6: 622.22 fold
[9]
  IC50: 2700 ± 935 nM
[10]
  PD-L1 expression: dose‐dependent reduction
[11]
  mitochondrial membrane potential ratios: increase
  proportion of apoptotic cells: dose‐dependent increase
[12]
  selectivity ratio HDAC1/6: 133.7 fold
[13]
  HDAC6 thermal stabilization (CETSA): notably stabilized HDAC6
[14]
  Kd: 330 ± 180 nM
